Assay results as given in ChEMBL document CHEMBL4342466, “Novel, Self-Assembling Dimeric Inhibitors of Human β Tryptase” (J Med Chem, 2020).
Calls of active or inactive are those of the source. The rule behind the calls is not given here.

Experiments:
[1] = Inhibition of human recombinant beta-tryptase pre-incubated for 3 hrs before N-tert-butoxycarbonyl-Gln-Ala-Arg-AMC substrate addition and measured every 30 secs for 15 mins by spectrometry
[2] = Stability in human liver microsomes assessed as parent compound remaining at 15 uM in absence of NADPH incubated for 60 mins; type: ADME, Microsome; settings: for Stability: microsomes, 1 h, 15 µM; for remaining at 1 h, 15 µM: liver microsomes, read-out: Stability
[3] = Stability in human liver microsomes assessed as parent compound remaining at 15 uM in presence of NADPH incubated for 60 mins; type: ADME, Microsome; settings: for Stability: microsomes, 1 h, 15 µM; for remaining at 1 h, 15 µM: liver microsomes, read-out: Stability
[4] = Stability in human liver microsomes assessed as parent compound remaining at 15 uM in presence of UDPGA incubated for 60 mins; type: ADME, Microsome; settings: for Stability: microsomes, 1 h, 15 µM; for remaining at 1 h, 15 µM: liver microsomes, read-out: Stability
Mus musculus = experiment: Inhibition of tryptase activity in tumors of mouse xenografted with human HMC1 cells at 10 mg/kg, iv dosed at time 0 and again 24 hrs later and measured at 24 to 48 hrs after second dose; type: functional, organism-based
Homo sapiens = organism: Homo sapiens; experiment: Inhibition of human recombinant beta-tryptase assessed as remaining enzyme activity at 10 uM pre-incubated for 3 hrs before N-tert-butoxycarbonyl-Gln-Ala-Arg-AMC substrate addition and measured after 8 hrs by spectrometry relative to control
HMC1 [5] = experiment: Inhibition of beta-tryptase in human HMC1 cells assessed as effect on tryptase activity by measured cell lysis; type: cell-based
HMC1 [6] = experiment: Inhibition of beta-tryptase in human HMC1 cells assessed as effect on A23187-induced degranulation; type: cell-based
Tryptase beta-2 = biological target: T1, Tryptase beta-2 (Mus musculus, UniProt P21845); experiment: Inhibition of mouse MCP6 pre-incubated for 3 hrs before N-tert-butoxycarbonyl-Gln-Ala-Arg-AMC substrate addition and measured every 30 secs for 15 mins by spectrometry
T1 sequence (P21845 whole entry): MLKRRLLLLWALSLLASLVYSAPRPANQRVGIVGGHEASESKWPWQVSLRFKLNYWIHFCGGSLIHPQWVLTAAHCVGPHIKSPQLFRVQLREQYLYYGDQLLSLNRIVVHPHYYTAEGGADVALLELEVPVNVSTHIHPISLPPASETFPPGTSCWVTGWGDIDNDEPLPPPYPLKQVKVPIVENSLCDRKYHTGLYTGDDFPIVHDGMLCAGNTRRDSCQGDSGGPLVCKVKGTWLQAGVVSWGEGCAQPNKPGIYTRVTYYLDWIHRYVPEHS

[7] = Drug concentration in tumor of mouse xenografted with human HMC1 cells at 10 mg/kg, iv dosed at time 0 and again 24 hrs later and measured at 2 hrs after second dose by LC-MS/MS analysis; type: ADME, organism-based, Neoplasm; settings: read-out: Drug uptake
[8] = Drug concentration in tumor of mouse xenografted with human HMC1 cells at 10 mg/kg, iv dosed at time 0 and again 24 hrs later and measured at 8 hrs after second dose by LC-MS/MS analysis; type: ADME, organism-based, Neoplasm; settings: read-out: Drug uptake
[9] = Drug concentration in tumor of mouse xenografted with human HMC1 cells at 10 mg/kg, iv dosed at time 0 and again 24 hrs later and measured at 0 hrs after second dose by LC-MS/MS analysis; type: ADME, organism-based, Neoplasm; settings: read-out: Drug uptake
[10] = Plasma concentration in mouse xenografted with human HMC1 cells at 10 mg/kg, iv dosed at time 0 and again 24 hrs later and measured at 2 hrs after second dose by LC-MS/MS analysis; type: ADME, organism-based
[11] = Drug concentration in tumor of mouse xenografted with human HMC1 cells at 10 mg/kg, iv dosed at time 0 and again 24 hrs later and measured at 24 hrs after second dose by LC-MS/MS analysis; type: ADME, organism-based, Neoplasm; settings: read-out: Drug uptake
[12] = Plasma concentration in mouse xenografted with human HMC1 cells at 10 mg/kg, iv dosed at time 0 and again 24 hrs later and measured at 8 hrs after second dose by LC-MS/MS analysis; type: ADME, organism-based
[13] = Plasma concentration in mouse xenografted with human HMC1 cells at 10 mg/kg, iv dosed at time 0 and again 24 hrs later and measured at 24 hrs after second dose by LC-MS/MS analysis; type: ADME, organism-based
[14] = Dissociation constant, pKa of the compound (B(OH)2) by UV metric assay; type: physicochemical
[15] = Stability in mouse liver microsomes assessed as parent compound remaining at 15 uM in presence of NADPH incubated for 60 mins; type: ADME, Microsome; settings: read-out: Stability
[16] = Dissociation constant, pKa of the compound (NH3*) by pH metric assay; type: physicochemical
[17] = Apparent permeability from apical to basolateral side in MDCK cells; type: ADME, cell-based, Canis lupus familiaris; settings: dog
CYP2C9 = CYP2C9 (Homo sapiens, UniProt P11712); experiment: Inhibition of CYP2C9 (unknown origin) at 10 uM relative to control; type: ADME
CYP2C9, sequence (P11712 whole entry): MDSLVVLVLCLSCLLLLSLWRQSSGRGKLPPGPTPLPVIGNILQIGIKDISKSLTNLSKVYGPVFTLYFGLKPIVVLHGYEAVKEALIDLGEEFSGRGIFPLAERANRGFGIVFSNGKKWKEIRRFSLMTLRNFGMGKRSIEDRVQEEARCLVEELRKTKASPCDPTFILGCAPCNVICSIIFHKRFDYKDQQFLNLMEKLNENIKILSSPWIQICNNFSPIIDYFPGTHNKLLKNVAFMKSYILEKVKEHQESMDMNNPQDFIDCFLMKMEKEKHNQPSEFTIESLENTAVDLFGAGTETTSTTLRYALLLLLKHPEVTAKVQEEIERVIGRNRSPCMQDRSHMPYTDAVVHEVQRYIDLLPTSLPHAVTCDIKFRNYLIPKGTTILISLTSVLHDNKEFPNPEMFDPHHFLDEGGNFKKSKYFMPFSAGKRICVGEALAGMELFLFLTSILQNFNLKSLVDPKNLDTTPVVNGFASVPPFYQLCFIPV

CYP2D6 = CYP2D6 (Homo sapiens, UniProt P10635); experiment: Inhibition of CYP2D6 (unknown origin) at 10 uM relative to control; type: ADME
CYP2D6, sequence (P10635 whole entry): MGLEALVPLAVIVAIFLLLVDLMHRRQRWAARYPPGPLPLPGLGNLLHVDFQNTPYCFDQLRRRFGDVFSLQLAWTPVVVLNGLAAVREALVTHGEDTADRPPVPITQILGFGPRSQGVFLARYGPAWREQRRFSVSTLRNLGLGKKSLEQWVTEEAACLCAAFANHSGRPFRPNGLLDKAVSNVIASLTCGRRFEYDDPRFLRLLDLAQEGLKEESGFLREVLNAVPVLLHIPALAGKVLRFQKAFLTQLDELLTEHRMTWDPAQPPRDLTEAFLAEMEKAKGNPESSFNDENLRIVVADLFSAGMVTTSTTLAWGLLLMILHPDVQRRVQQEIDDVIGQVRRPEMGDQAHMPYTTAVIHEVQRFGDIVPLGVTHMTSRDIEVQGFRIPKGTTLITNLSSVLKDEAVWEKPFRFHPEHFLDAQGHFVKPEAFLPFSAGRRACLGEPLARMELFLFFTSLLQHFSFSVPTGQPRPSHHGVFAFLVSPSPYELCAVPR

[18] = Dissociation constant, pKa of the compound (B(OH)2) by pH metric assay; type: physicochemical
CYP2C19 = CYP2C19 (Homo sapiens, UniProt P33261); experiment: Inhibition of CYP2C19 (unknown origin) at 10 uM relative to control; type: ADME
CYP2C19, sequence (P33261 whole entry): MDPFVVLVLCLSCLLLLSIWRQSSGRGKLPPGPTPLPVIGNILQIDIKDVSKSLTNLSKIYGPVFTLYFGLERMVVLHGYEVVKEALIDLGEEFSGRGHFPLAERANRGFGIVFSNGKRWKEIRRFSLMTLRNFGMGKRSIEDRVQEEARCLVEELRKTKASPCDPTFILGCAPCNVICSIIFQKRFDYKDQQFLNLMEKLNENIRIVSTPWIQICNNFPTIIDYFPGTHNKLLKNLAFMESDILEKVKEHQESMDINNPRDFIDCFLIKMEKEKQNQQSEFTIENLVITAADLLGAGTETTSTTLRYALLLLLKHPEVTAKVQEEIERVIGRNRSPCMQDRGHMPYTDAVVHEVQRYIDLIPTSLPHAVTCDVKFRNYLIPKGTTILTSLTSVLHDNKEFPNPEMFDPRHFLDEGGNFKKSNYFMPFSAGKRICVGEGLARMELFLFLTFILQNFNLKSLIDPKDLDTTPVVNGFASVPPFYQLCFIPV

[19] = Stability in rat liver microsomes assessed as parent compound remaining at 15 uM in presence of NADPH incubated for 60 mins; type: ADME, Microsome; settings: read-out: Stability
CYP1A2 = biological target: T2, CYP1A2 (Homo sapiens, UniProt P05177); experiment: Inhibition of CYP1A2 (unknown origin) at 10 uM relative to control; type: ADME
T2 sequence (P05177 whole entry): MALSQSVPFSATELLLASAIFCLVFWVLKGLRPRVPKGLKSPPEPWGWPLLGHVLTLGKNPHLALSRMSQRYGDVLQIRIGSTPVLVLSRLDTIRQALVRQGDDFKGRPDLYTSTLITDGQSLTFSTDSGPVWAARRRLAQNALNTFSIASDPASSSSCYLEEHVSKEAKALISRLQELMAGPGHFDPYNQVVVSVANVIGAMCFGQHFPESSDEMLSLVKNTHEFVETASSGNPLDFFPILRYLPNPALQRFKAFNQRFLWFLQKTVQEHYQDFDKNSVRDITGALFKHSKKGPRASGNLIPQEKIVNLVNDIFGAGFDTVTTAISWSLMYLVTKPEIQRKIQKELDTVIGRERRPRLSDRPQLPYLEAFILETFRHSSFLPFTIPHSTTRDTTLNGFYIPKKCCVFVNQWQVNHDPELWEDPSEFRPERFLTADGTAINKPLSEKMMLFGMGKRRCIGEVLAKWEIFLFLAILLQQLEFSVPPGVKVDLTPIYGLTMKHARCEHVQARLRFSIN

[20] = Effective permeability from apical to basolateral side in PAMPA method; type: ADME; settings: read-out: Peff
[21] = Effective permeability assessed as mass retention by PAMPA method; type: ADME
[22] = Stability in rat liver microsomes assessed as parent compound remaining at 15 uM in absence of NADPH incubated for 60 mins; type: ADME, Microsome; settings: read-out: Stability
[23] = Stability in mouse liver microsomes assessed as parent compound remaining at 15 uM in absence of NADPH incubated for 60 mins; type: ADME, Microsome; settings: read-out: Stability
CYP3A4 = CYP3A4 (Homo sapiens, UniProt P08684); experiment: Inhibition of CYP3A4 (unknown origin) at 10 uM relative to control; type: ADME
CYP3A4, sequence (P08684 whole entry): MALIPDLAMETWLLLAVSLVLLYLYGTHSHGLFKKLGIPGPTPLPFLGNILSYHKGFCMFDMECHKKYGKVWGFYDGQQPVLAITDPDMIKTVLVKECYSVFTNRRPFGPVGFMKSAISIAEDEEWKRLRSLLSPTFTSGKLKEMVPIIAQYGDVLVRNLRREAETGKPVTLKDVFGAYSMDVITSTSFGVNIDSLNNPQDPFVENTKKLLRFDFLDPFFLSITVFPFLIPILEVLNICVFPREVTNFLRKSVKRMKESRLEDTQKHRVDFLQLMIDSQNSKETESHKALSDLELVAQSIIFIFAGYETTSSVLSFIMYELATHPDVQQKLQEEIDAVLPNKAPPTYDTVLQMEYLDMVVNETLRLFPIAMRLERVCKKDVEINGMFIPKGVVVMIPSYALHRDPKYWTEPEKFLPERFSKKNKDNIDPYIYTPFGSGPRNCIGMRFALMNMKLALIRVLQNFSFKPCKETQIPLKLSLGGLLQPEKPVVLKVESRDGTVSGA

Work on `Cc1cc(C(=O)N2CCC3(CC2)COc2ccc(CN)cc23)cc(-c2cccc(B(O)O)c2)c1C` yielded an IC50 [1] of 1360 nM.

In the case of `CONC(=O)c1ccc(C(=O)N2CCC(c3cccc(CN)c3)CC2)cc1O`, the Stability [2] is reported as “Stable”, the IC50 [1] is reported as 120 nM and the Stability [3] is reported as “Stable”. For the same molecule, the Stability [4] was “Stable”.

With `NCc1ccc2c(c1)C1(CCN(C(=O)c3cc(O)c(O)c(Cl)c3)CC1)CO2` the inhibition (Mus musculus) was “Active”, the inhibition (Homo sapiens) was “inactive” and the inhibition (HMC1 [5]) was “inactive”. For the same molecule, the inhibition (HMC1 [6]) was “Active”.

For `NCc1ccc2c(c1)C1(CCN(C(=O)c3ccc(CO)c(O)c3)CC1)CO2`, the Stability [2] was “Stable”, the IC50 [1] was 656 nM and the Stability [3] was “Stable”. The Stability [4] was “Stable” and the IC50 (Tryptase beta-2) was 4690 nM.

With `NCc1ccc2c(c1)C1(CCN(C(=O)c3cccc(-c4cccc(B(O)O)c4)c3)CC1)CO2` the inhibition (Mus musculus) was “Active”, the inhibition (Homo sapiens) was “inactive” and the inhibition (HMC1 [5]) was “inactive”. The inhibition (HMC1 [6]) was “Active”.

`NCc1ccc2c(c1)C1(CCN(C(=O)c3cc(O)c(O)c(Cl)c3)CC1)CO2.O=C(O)C(F)(F)F` gave a concentration at 2 h [7] of 314 nM, a concentration at 8 h [8] of 58.6 nM and a concentration at 0 h [9] of 17.6 nM. For the same molecule, the concentration at 2 h [10] was 311 nM, the concentration at 24 h [11] was 8.64 nM and the concentration at 8 h [12] was 1.28 nM. The concentration at 24 h [13] was 0.02 nM.

Work on `NCc1cccc(C2CCN(C(=O)/C=C/c3ccc4c(c3)OB(c3ccc5cccc(C(=O)N6CCC(c7cccc(CN)c7)CC6)c5c3)O4)CC2)c1` yielded an IC50 [1] of 411 nM.

In the case of `CONC(=O)c1cc(C(=O)N2CCC3(CC2)COc2ccc(CN)cc23)ccc1O`, the Stability [2] is reported as “Stable”, the IC50 [1] is reported as 570 nM and the remaining at 1 h, 15 µM [3] is reported as 87%. The remaining at 1 h, 15 µM [4] was 67% and the IC50 (Tryptase beta-2) was 2160 nM.

`NCc1cccc(C2CCN(C(=O)c3cccc4ccc(B(O)O)cc34)CC2)c1` showed a pKa [14] of 8.51, a remaining at 1 h, 15 µM [2] of 97% and a remaining at 1 h, 15 µM [15] of 99%. The pKa [16] was 9.53, the Papp A→B [17] was 0.28 ×10⁻⁶ cm/s and the inhibition at 10 µM (CYP2C9) was 97%. For the same molecule, the inhibition at 10 µM (CYP2D6) was 79%, the pKa [18] was 8.18 and the inhibition at 10 µM (CYP2C19) was 80%. It also gave a remaining at 1 h, 15 µM [19] of 100%, an inhibition at 10 µM (CYP1A2) of 45% and a Papp [20] of 2.06 ×10⁻⁶ cm/s. The Activity [21] was 96.2%, the remaining at 1 h, 15 µM [22] was 100% and the remaining at 1 h, 15 µM [23] was 100%. It also gave an inhibition at 10 µM (CYP3A4) of 27%, an IC50 [1] of 15800 nM and a remaining at 1 h, 15 µM [3] of 100%.

With `Cc1cc(C(=O)N2CCC(c3cccc(CN)c3)CC2)cc(-c2cccc(B(O)O)c2)c1C` the IC50 [1] was 1250 nM.

In the case of `CSc1sc(C(=O)N2CCC3(CC2)COc2ccc(CN)cc23)cc1-c1cccc2c1COB2O`, the Stability [2] is reported as “Stable”, the IC50 [1] is reported as 18 nM and the Stability [3] is reported as “Stable”. For the same molecule, the Stability [4] was “Stable”.

For `NCc1cccc(C2CCN(C(=O)c3ccc(CO)c(O)c3)CC2)c1`, the remaining at 1 h, 15 µM [2] was 63%, the IC50 [1] was 65.8 nM and the remaining at 1 h, 15 µM [3] was 68%. The remaining at 1 h, 15 µM [4] was 81% and the IC50 (Tryptase beta-2) was 1550 nM.
